Assay results from paper PMC5659136, “Peptide mimetics of immunoglobulin A (IgA) and FcαRI block IgA‐induced human neutrophil activation and migration” (European Journal of Immunology, 2017).
Positions of bridges follow the written chain, without caps; N, C: chain ends. No end group written: not given here.

How the values were obtained:
neutrophils [1] = test: In vitro neutrophil migration to IgA-coated beads; assay type: cell-based, human; conditions: fluorimeter; for block of IgA-induced neutrophil migration (in words): oxidated or small cyclic peptides, 3 independent experiments in triplicates, Supporting Information Fig. 2
Procedure: Figure 3 Peptide mimetics block IgA‐induced migration in vitro. Percentage of migration of fluorescently labelled neutrophils to IgA‐coated beads, either in the presence or absence of peptide mimetics. The number of migrated neutrophils was determined with a fluorimeter. Neutrophil migration to IgA was normalized to 100% (dotted line). Neutrophils or beads were pre‐incubated with (A) linear or (B) cyclic peptides mimicking FcαRI‐sequences (white bars) or IgA‐sequences (black bars). Data are representative of three independent experiments, performed in triplicates. Mean ± SD is shown. Statistical analysis: ANOVA *p< 0.05, **p < 0.01.
(§1) In vitro migration assays were performed as previously described 4. All experiments were performed in triplo. Migration towards IL‐8 (30 ng/mL) was measured after pre‐incubating neutrophils with peptides (1 μg/mL) or anti‐IL‐8 blocking antibody (10 μg/mL, Pharmingen).
Supporting Information Figure 2 […]
Percentage of migration of fluorescently labelled neutrophil to IgA-coated beads, either in the presence or absence of peptide mimetics. The number of migrated neutrophils was determined with a fluorimeter. Neutrophil migration to IgA was normalized to 100% (dotted line). Neutrophils or beads were pre-incubated with (A) oxidated or (B) small cyclic peptides mimicking FcαRI-sequences (white bars) or IgA-sequences (black bars). Data are representative of 3 independent experiments, performed in triplicates. Mean ± SD of one representative experiment is shown. Statistical analysis: ANOVA

[2] = test system: IgA binding to FcαRI (on neutrophils); test: Ligand binding assay: neutrophil binding to IgA-coated plates; assay type: cell-based; conditions: peptide 1 μg/mL, pre-incubation 20 min, 4°C, calcein labeled human neutrophils 2.5 × 10^5 cells/well, 37°C, fluorimeter, three independent experiments in triplicates, Fig. 1
Procedure: Figure 1 Peptide mimetics inhibit IgA binding to FcαRI. Percentage of ligand binding between IgA and FcαRI (on neutrophils), either in the presence or absence of peptide mimetics. Fluorescently labelled human neutrophils, isolated from blood, were added to IgA‐coated plates, and the number of neutrophils attaching to the plate was measured with a fluorimeter. IgA binding to FcαRI was normalized to 100% (indicated with dotted line). Neutrophils or plates were pre‐incubated with either linear peptides (A) or cyclic CLIPS‐peptides (B) mimicking FcαRI‐sequences (white bars) or IgA‐sequences (black bars). Data are representative of three independent experiments, performed in triplicates. Mean is shown, error bars refer to SD (n = 3). Statistical analysis: ANOVA*p< 0.05, **p < 0.01.
Neutrophils were isolated from heparinized peripheral human blood from healthy donors after informed consent was given, using standard Lymphoprep (Axis‐shield, Dundee, Scotland) density gradient centrifugation. […]
Plates (Nunc‐ImmunoMaxiSorp™, Roskilde, Denmark) were coated with IgA, or BSA (as control) (10 μg/mL, 3 h, 37°C), washed and pre‐incubated with FcαRI‐peptides (1 μg/mL, 20 min, 4°C). […] Attached cells were lysed and fluorescence of supernatant was measured with a fluorimeter (485 nm excitation/520 nm emission filters; Fluostar Galaxy, BMG Labtechnologies, Offenburg, Germany), as measure of binding. […]

neutrophils [3] = test: IL-8 induced chemotaxis of neutrophils; assay type: cell-based, human; conditions: IL-8 30 ng/mL; neutrophils pre-incubated with peptides 1 μg/mL; fluorimeter; three times in triplo; Supporting Information Fig. 3
Procedure: as §1
Supporting Information Figure 3 […]
medium IL-8anti-IL-8IgA1-linFcĮRI1-linFcĮRI9-ox
Number of fluorescently labelled neutrophils which migrated to IL-8 in a chemotaxis chamber, either in the presence or absence of peptide mimetics. The number of migrated neutrophils was determined with a fluorimeter. Neutrophil migration to IL-8 is indicated with a dotted line.
Medium and blocking IL-8 antibody (anti-IL-8) were used as controls. Experiments were performed three times in triplo. Mean ± SD of one representative experiments in triplo is shown.
Statistical analysis: ANOVA

neutrophils [4] = test: Ex vivo human skin migration assay (IgA-coated beads injected in the dermis); assay type: cell-based; conditions: full thickness human skin grafts; peptide 1 μg/mL, pre-incubation 20 min, 4°C; incubated overnight (24 h) at 37°C; fluorescence microscopy; three independent experiments in duplicate; Fig. 4
Source text: To mimic blocking of neutrophil migration toward aberrant IgA‐antigen complexes in the skin, an ex vivo migration assay was established. […] No influx toward BSA‐coated beads was observed, whereas massive influx of neutrophils toward the injected IgA‐coated beads was observed (Fig 4A).
Figure 4 Peptide mimetics block neutrophil migration and penetrate the dermis in an ex vivo human skin model. Migration of green‐fluorescent neutrophils to BSA‐ (left panel) or IgA‐ (right panel) coated beads (indicated with circles) in the dermis of ex vivo skin explants (A). Migration of green‐fluorescent neutrophils to IgA‐coated beads (indicated with circles) after pre‐incubation with non‐blocking peptide FcαRI9‐ox (B), linear peptides (C) or cyclic CLIPS‐peptides (D). Images are representative of three independent experiments, performed in duplicate. Scale bar = 250 μm. Images are 10× magnified.
For ex vivo human skin migration assays, full thickness mammary skin grafts (epidermis and dermis) were placed in an ex vivo tissue incubation chamber with the dermis face up 6, 49. IgA‐coated beads were pre‐incubated with FcαRI‐peptides (1 μg/mL, 20 min, 4°C) and injected intracutaneously via the dermis. BSA‐coated beads were used for control. Next, PKH‐67 labeled neutrophils (4 × 10^6 cells/well) were added on the dermis. Alternatively, IgA‐coated beads were injected intracutaneously and PKH‐67 labeled neutrophils (4 × 10^6 cells/well) that were pre‐incubated with IgA‐peptides (1 μg/mL, 20 min, 4°C) were added onto the dermis. Cells were supplemented with IFN‐γ to prevent early apoptosis (300 units/mL; Boehringer Ingelheim, Ingelheim am Rhein, Germany). Skin was incubated overnight at 37°C, after which biopsies of the injected skin were taken and snap frozen. Cryosections of 6 μm were analysed with a Nikon eclipse e800 (Nikon instruments Europe BV, Amsterdam, The Netherlands).

Substance	block of IgA-induced neutrophil migration (in words) (neutrophils [1])	neutrophil migration to IgA-coated beads in ex vivo human skin (neutrophils [4])	other results
SCEALPLAFTCKT (also: sidechain bridge or staple (positions not given here)) [IgA3‐CLIPS]	do not block	–	–
YQACHYRFRC (also: sidechain bridge or staple (positions not given here)) [FcαRI5‐CLIPS]	do not block	–	–
CEALPLAFTCKT (also: sidechain bridge or staple (positions not given here)) [IgA2‐CLIPS]	do not block	–	–
SSCVGHEALPLAFTCKT (disulfide 3-15 (inferred)) [IgA7‐ox]	do not block	–	–
SSMVGHEALPLAFTQKT [IgA1‐lin]	–	completely blocked	blocking of neutrophil binding to IgA-coated wells [2]: approximately 50%; block of neutrophil migration to IgA-coated beads (neutrophils [1]; neutrophils or beads pre-incubated with peptides, three independent experiments in triplicates, Fig. 3): 60–80%; effect on IL-8 induced chemotaxis (neutrophils [3]): do not block
RYQAQCRIGHYRFC (disulfide 6-14 (inferred)) [FcαRI6‐ox]	do not block	–	–
SSMCGHEALPLAFCQKT (disulfide 4-14 (inferred)) [IgA6‐ox]	do not block	–	–
CHYRFRC (also: sidechain bridge or staple (positions not given here)) [FcαRI3‐CLIPS]	do not block	–	–
SSCVGHEALPLAFTCKT (also: sidechain bridge or staple (positions not given here)) [IgA7‐CLIPS]	–	fully abrogated	–
GRYQAQCRIGHYRFCYSD (disulfide 7-15 (inferred)) [FcαRI9‐ox]	do not block	did not inhibit	effect on IL-8 induced chemotaxis (neutrophils [3]): do not block
